From patent US11414424B2, “Cardiac sarcomere inhibitors” (Cytokinetics, Inc., priority 2018, dated 2022)

Test system: bovine cardiac myofibrils
Experiment: Myofibril assay: PK/LDH-coupled steady-state ATPase activity of skinned bovine cardiac myofibrils
Assay type: biochemical
Details: Ca2+ activating to 75% of maximal rate
Protocol: To evaluate the effect of compounds on the ATPase activity of full-length cardiac myosin in the context of the native sarcomere, skinned myofibril assays were performed. Bovine cardiac myofibrils were obtained by homogenizing bovine cardiac left ventricular tissue in the presence of a detergent such as triton X-100. Such treatment removes membranes and a majority of the soluble cytoplasmic proteins but leaves intact the cardiac sarcomeric acto-myosin apparatus. Myofibril preparations retain the ability to hydrolyze ATP in a Ca^2+ regulated manner. ATPase activities of such myofibril preparations in the presence and absence of compounds were assayed at Ca^2+ concentrations activating to a defined fraction of the maximal rate (i.e., […], 75%). Small molecule agents were assessed for their ability to inhibit the steady-state ATPase activity of bovine cardiac myofibrils using pyruvate kinase and lactate dehydrogenase (PK/LDH)-coupled enzyme system. This assay regenerates myosin-produced ADP into ATP by oxidizing NADH, producing an absorbance change at 340 nm. Prior to testing small molecule agents, the bovine cardiac myofibrils were assessed for their calcium responsiveness and the calcium concentration that achieves either a 50% (pCa50) or 75% (pCa75) activation of the myofibril system was chosen as the final condition for assessing the inhibitory activity of the small molecule agents. All enzymatic activity was measured in a buffered solution containing 12 mM PIPES (piperazine-N,N′-bis(2-ethanesulfonic acid), 2 mM magnesium chloride at pH 6.8 (PM 12 buffer). Final assay conditions were 1 mg/mL of bovine cardiac myofibrils, 4 U/mL pyruvate kinase, 6 U/mL lactate dehydrogenase, 50 μM ATP, 0.1 mg/mL BSA (bovine serum albumin), 10 ppm antifoam, 1 mM DTT, 0.5 mM NADH, 1.5 mM PEP, 0.6 mM EGTA, and an amount of CaCl2 sufficient to achieve either 50% or 75% activation of the myofibril ATPase activity. Results for compounds tested are provided in Table A. Compounds tested were prepared in accordance with the synthetic procedures described herein.

SMILES | CDMF75 IC15 | also measured
O=C1C(C2CC(O)C2)N(Cc2ccc(F)cc2)C(=O)CN1c1ccc(Cl)cc1F (single isomer, unassigned) [Compound 866B, 1-(4-chloro-2-fluorophenyl)-4-(4-fluorobenzyl)-3-(3-hydroxycyclobutyl)piperazine-2,5-dione] | >39 µM | –
O=C1C(C2CC(O)C2)N(Cc2ccc(F)cc2)C(=O)CN1c1ccc(Cl)cc1F (single isomer, unassigned) [Compound 866C, 1-(4-chloro-2-fluorophenyl)-4-(4-fluorobenzyl)-3-(3-hydroxycyclobutyl)piperazine-2,5-dione] | 2.3 µM | –
O=C1C(C2CC(O)C2)N(Cc2ccc(F)cc2)C(=O)CN1c1ccc(Cl)cc1F (single isomer, unassigned) [Compound 866D, 1-(4-chloro-2-fluorophenyl)-4-(4-fluorobenzyl)-3-(3-hydroxycyclobutyl)piperazine-2,5-dione] | >39 µM | –
NC(=O)[C@H]1C[C@]2(C1)C(=O)N(c1ncc(Cl)cc1F)CC(=O)N2Cc1ccc(C(F)F)cc1 (single isomer, unassigned) [Compound 875A, 8-(5-chloro-3-fluoropyridin-2-yl)-5-(4-(difluoromethyl)benzyl)-6,9-dioxo-5,8-diazaspiro[3.5]nonane-2-carboxamide] | 2.2 µM | –
NC(=O)[C@H]1C[C@]2(C1)C(=O)N(c1ncc(Cl)cc1F)CC(=O)N2Cc1ccc(C(F)F)cc1 (single isomer, unassigned) [Compound 875B, 8-(5-chloro-3-fluoropyridin-2-yl)-5-(4-(difluoromethyl)benzyl)-6,9-dioxo-5,8-diazaspiro[3.5]nonane-2-carboxamide] | 3.2 µM | –
O=C1CN(c2ccc(Cl)cc2F)C(=O)C2(CC(O)C2)N1Cc1ccc(F)cc1 (single isomer, unassigned) [Diastereomer 867A, 8-(4-chloro-2-fluorophenyl)-5-(4-fluorobenzyl)-2-hydroxy-5,8-diazaspiro[3.5]nonane-6,9-dione] | – | CDMF75 IC15 (listed as 867A): 2.1 µM
O=C1CN(c2ccc(Cl)cc2F)C(=O)C2(CC(O)C2)N1Cc1ccc(F)cc1 (single isomer, unassigned) [Diastereomer 867B, 8-(4-chloro-2-fluorophenyl)-5-(4-fluorobenzyl)-2-hydroxy-5,8-diazaspiro[3.5]nonane-6,9-dione] | – | CDMF75 IC15 (listed as 867B): 1.7 µM
O=C1C(C23CC(O)(C2)C3)N(Cc2ccc(C(F)(F)F)cc2)C(=O)CN1c1ncc(Cl)cc1F (single isomer, unassigned) [Enantiomer 838A, 1-(5-chloro-3-fluoropyridin-2-yl)-3-(3-hydroxybicyclo[1.1.1]pentan-1-yl)-4-(4-(trifluoromethyl)benzyl)piperazine-2,5-dione] | – | CDMF75 IC15 (listed as 838A): 2.3 µM
O=C1C(C23CC(O)(C2)C3)N(Cc2ccc(C(F)(F)F)cc2)C(=O)CN1c1ncc(Cl)cc1F (single isomer, unassigned) [Enantiomer 838B, 1-(5-chloro-3-fluoropyridin-2-yl)-3-(3-hydroxybicyclo[1.1.1]pentan-1-yl)-4-(4-(trifluoromethyl)benzyl)piperazine-2,5-dione] | – | CDMF75 IC15 (listed as 838B): >39 µM
N#Cc1ccc(N2CC(=O)N(Cc3ccc(Cl)cc3)C3(CCN(C(=O)C4COC4)C3)C2=O)c(F)c1 (stereo in doubt) [Compound 210, (S)-4-(6-(4-chlorobenzyl)-2-(oxetane-3-carbonyl)-7,10-dioxo-2,6,9-triazaspiro[4.5]decan-9-yl)-3-fluorobenzonitrile] | 1.7 µM | –
N#Cc1ccc(N2CC(=O)N(Cc3ccc(Cl)cc3)C3(CCN(C(=O)C4CCC4)C3)C2=O)c(F)c1 (stereo in doubt) [Compound 212, (S)-4-(6-(4-chlorobenzyl)-2-(cyclobutanecarbonyl)-7,10-dioxo-2,6,9-triazaspiro[4.5]decan-9-yl)-3-fluorobenzonitrile] | 0.9 µM | –
N#Cc1ccc(N2CC(=O)N(Cc3ccc(Cl)cc3)C3(CCN(C(=O)C4CC4)C3)C2=O)c(F)c1 (stereo in doubt) [Compound 213, (S)-4-(6-(4-chlorobenzyl)-2-(cyclopropanecarbonyl)-7,10-dioxo-2,6,9-triazaspiro[4.5]decan-9-yl)-3-fluorobenzonitrile] | 0.4 µM | –
N#Cc1ccc(N2CC(=O)N(Cc3ccc(C(F)(F)F)cc3)C3(CCN(C=O)C3)C2=O)c(F)c1 (stereo in doubt) [Compound 222, (S)-3-fluoro-4-(2-formyl-7,10-dioxo-6-(4-(trifluoromethyl)benzyl)-2,6,9-triazaspiro[4.5]decan-9-yl)benzonitrile] | 0.7 µM | –
CC(C)N1CC(=O)N(Cc2ccc(C(F)(F)F)cc2)C2(CCN(C(=O)NC3CCC3)C2)C1=O (centres unmarked) [Compound 1, N-cyclobutyl-9-isopropyl-7,10-dioxo-6-(4-(trifluoromethyl)benzyl)-2,6,9-triazaspiro[4.5]-decane-2-carboxamide] | 9.5 µM | –
CC(C)N1CC(=O)N(Cc2ccc(Cl)cc2)C2(CN(c3ccccc3)C2)C1=O [Compound 2, 5-(4-chlorobenzyl)-8-isopropyl-2-phenyl-2,5,8-triazaspiro[3.5]nonane-6,9-dione] | 1.8 µM | –
CC(C)N1CC(=O)N(Cc2ccc(Cl)cc2)C2(CN(c3ccc(F)cc3)C2)C1=O [Compound 3, 5-(4-chlorobenzyl)-2-(4-fluorophenyl)-8-isopropyl-2,5,8-triazaspiro[3.5]-nonane-6,9-dione] | 1.7 µM | –
CC(C)N1CC(=O)N(Cc2ccc(Cl)cc2)C2(CN(c3ccc(Cl)cc3)C2)C1=O [Compound 4, 5-(4-chlorobenzyl)-2-(4-chlorophenyl)-8-isopropyl-2,5,8-triazaspiro[3.5]-nonane-6,9-dione] | 2.5 µM | –
CC(C)N1CC(=O)N(Cc2ccc(Cl)cc2)C2(CN(c3cccc(Cl)c3)C2)C1=O [Compound 5, 5-(4-chlorobenzyl)-2-(3-chlorophenyl)-8-isopropyl-2,5,8-triazaspiro[3.5]-nonane-6,9-dione] | 1.9 µM | –
CC(C)N1CC(=O)N(Cc2ccc(Cl)cc2)C2(CN(c3ccccn3)C2)C1=O [Compound 6, 5-(4-chlorobenzyl)-8-isopropyl-2-(pyridin-2-yl)-2,5,8-triazaspiro[3.5]-nonane-6,9-dione] | 0.9 µM | –
CC(C)N1CC(=O)N(Cc2ccc(Cl)cc2)C2(CN(c3cccnc3)C2)C1=O [Compound 7, 5-(4-chlorobenzyl)-8-isopropyl-2-(pyridin-3-yl)-2,5,8-triazaspiro[3.5]-nonane-6,9-dione] | 1.9 µM | –
CC(C)N1CC(=O)N(Cc2ccc(Cl)cc2)C2(CN(c3ccncc3)C2)C1=O [Compound 8, 5-(4-chlorobenzyl)-8-isopropyl-2-(pyridin-4-yl)-2,5,8-triazaspiro[3.5]-nonane-6,9-dione] | 3.3 µM | –
Cc1ccc(N2CC3(C2)C(=O)N(C(C)C)CC(=O)N3Cc2ccc(Cl)cc2)nc1 [Compound 9, 5-(4-chlorobenzyl)-8-isopropyl-2-(5-methyl-pyridin-2-yl)-2,5,8-triazaspiro[3.5]nonane-6,9-dione] | 2.4 µM | –
Cc1cc(N2CC3(C2)C(=O)N(C(C)C)CC(=O)N3Cc2ccc(Cl)cc2)ccn1 [Compound 10, 5-(4-chlorobenzyl)-8-isopropyl-2-(2-methyl-pyridin-4-yl)-2,5,8-triazaspiro[3.5]nonane-6,9-dione] | 5.2 µM | –
